Results taken from publication PMC6979384, “Characterization of the plant homeodomain (PHD) reader family for their histone tail interactions” (Epigenetics & Chromatin, 2020).

What was measured:
Test in all cases: Histone peptide microarray
Assay type in all cases: binding, human
[1] = tested on: AIRE (PP); conditions: AIRE (PP); sheet "Array Heatmap"; each array performed twice, total n = 4
How it was run: (§1)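 Readout is array binding signal, reported as the mean and standard deviation over four replicates. Each purified GST-fused PHD domain was incubated at 0.5 μM with a library of 293 modified histone peptides.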

[2] = tested on: BAZ2B; conditions: BAZ2B; sheet "Array Heatmap"; each array performed twice, total n = 4
How it was run: as §1

[3] = tested on: BPTF (PB); conditions: BPTF (PB); sheet "Array Heatmap"; each array performed twice, total n = 4
How it was run: as §1

[4] = tested on: CHD4 (PPCC); conditions: CHD4 (PPCC); sheet "Array Heatmap"; each array performed twice, total n = 4
How it was run: as §1

[5] = tested on: CHD5 (PCC); conditions: CHD5 (PCC); sheet "Array Heatmap"; each array performed twice, total n = 4
How it was run: as §1

[6] = tested on: CHD5 (PPCC); conditions: CHD5 (PPCC); sheet "Array Heatmap"; each array performed twice, total n = 4
How it was run: as §1

[7] = tested on: DIDO1; conditions: DIDO1; sheet "Array Heatmap"; each array performed twice, total n = 4
How it was run: as §1

[8] = tested on: DPF2 (PPC2W2); conditions: DPF2 (PPC2W2); sheet "Array Heatmap"; each array performed twice, total n = 4
How it was run: as §1

[9] = tested on: ING1; conditions: ING1; sheet "Array Heatmap"; each array performed twice, total n = 4
How it was run: as §1

[10] = tested on: ING2; conditions: ING2; sheet "Array Heatmap"; each array performed twice, total n = 4
How it was run: as §1

[11] = tested on: ING3; conditions: ING3; sheet "Array Heatmap"; each array performed twice, total n = 4
How it was run: as §1

[12] = tested on: ING4; conditions: ING4; sheet "Array Heatmap"; each array performed twice, total n = 4
How it was run: as §1

[13] = tested on: ING5; conditions: ING5; sheet "Array Heatmap"; each array performed twice, total n = 4
How it was run: as §1

[14] = tested on: KDM4C (TTP); conditions: KDM4C (TTP); sheet "Array Heatmap"; each array performed twice, total n = 4
How it was run: as §1

[15] = tested on: KDM5A (1); conditions: KDM5A (1); sheet "Array Heatmap"; each array performed twice, total n = 4
How it was run: as §1

[16] = tested on: KDM5A (3); conditions: KDM5A (3); sheet "Array Heatmap"; each array performed twice, total n = 4
How it was run: as §1

[17] = tested on: KDM5B (1); conditions: KDM5B (1); sheet "Array Heatmap"; each array performed twice, total n = 4
How it was run: as §1

[18] = tested on: KDM5B (3); conditions: KDM5B (3); sheet "Array Heatmap"; each array performed twice, total n = 4
How it was run: as §1

[19] = tested on: KDM7A; conditions: KDM7A; sheet "Array Heatmap"; each array performed twice, total n = 4
How it was run: as §1

[20] = tested on: MLL5; conditions: MLL5; sheet "Array Heatmap"; each array performed twice, total n = 4
How it was run: as §1

[21] = tested on: MORC3 (CW); conditions: MORC3 (CW); sheet "Array Heatmap"; each array performed twice, total n = 4
How it was run: as §1

[22] = tested on: PHF13; conditions: PHF13; sheet "Array Heatmap"; each array performed twice, total n = 4
How it was run: as §1

[23] = tested on: PHF21A; conditions: PHF21A; sheet "Array Heatmap"; each array performed twice, total n = 4
How it was run: as §1

[24] = tested on: PHF23; conditions: PHF23; sheet "Array Heatmap"; each array performed twice, total n = 4
How it was run: as §1

[25] = tested on: PHF2; conditions: PHF2; sheet "Array Heatmap"; each array performed twice, total n = 4
How it was run: as §1

[26] = tested on: PHF8; conditions: PHF8; sheet "Array Heatmap"; each array performed twice, total n = 4
How it was run: as §1

[27] = tested on: PHRF1 (RP); conditions: PHRF1 (RP); sheet "Array Heatmap"; each array performed twice, total n = 4
How it was run: as §1

[28] = tested on: RAG2; conditions: RAG2; sheet "Array Heatmap"; each array performed twice, total n = 4
How it was run: as §1

[29] = tested on: SP140L; conditions: SP140L; sheet "Array Heatmap"; each array performed twice, total n = 4
How it was run: as §1

[30] = tested on: TAF3; conditions: TAF3; sheet "Array Heatmap"; each array performed twice, total n = 4
How it was run: as §1

[31] = tested on: TRIM66 (PB); conditions: TRIM66 (PB); sheet "Array Heatmap"; each array performed twice, total n = 4
How it was run: as §1

H4K5ac + K8ac + K12me1 + K16ac: H4 1-23
Array Heatmap value (peptide array signal) [1]: 0.4852
Array Heatmap value (peptide array signal) [2]: 0.5334
Array Heatmap value (peptide array signal) [3]: 0.4205
Array Heatmap value (peptide array signal) [4]: 0.628
Array Heatmap value (peptide array signal) [5]: 0.8246
Array Heatmap value (peptide array signal) [6]: 0.6457
Array Heatmap value (peptide array signal) [7]: 0.7398
Array Heatmap value (peptide array signal) [8]: 0.7404
Array Heatmap value (peptide array signal) [9]: 0.5999
Array Heatmap value (peptide array signal) [10]: 0.6062
Array Heatmap value (peptide array signal) [11]: 0.5746
Array Heatmap value (peptide array signal) [12]: 0.538
Array Heatmap value (peptide array signal) [13]: 0.4233
Array Heatmap value (peptide array signal) [14]: 0.5546
Array Heatmap value (peptide array signal) [15]: 0.525
Array Heatmap value (peptide array signal) [16]: 0.4814
Array Heatmap value (peptide array signal) [17]: 0.6517
Array Heatmap value (peptide array signal) [18]: 0.5615
Array Heatmap value (peptide array signal) [19]: 0.3906
Array Heatmap value (peptide array signal) [20]: 0.5904
Array Heatmap value (peptide array signal) [21]: 0.4079
Array Heatmap value (peptide array signal) [22]: 0.7176
Array Heatmap value (peptide array signal) [23]: 0.5148
Array Heatmap value (peptide array signal) [24]: 0.5681
Array Heatmap value (peptide array signal) [25]: 0.5943
Array Heatmap value (peptide array signal) [26]: 0.3954
Array Heatmap value (peptide array signal) [27]: 0.5035
Array Heatmap value (peptide array signal) [28]: 0.2841
Array Heatmap value (peptide array signal) [29]: 0.4016
Array Heatmap value (peptide array signal) [30]: 0.2985
Array Heatmap value (peptide array signal) [31]: 0.6523

H4K5ac + K8ac + K16ac: H4 1-23
Array Heatmap value (peptide array signal) [1]: 0.4269
Array Heatmap value (peptide array signal) [2]: 0.469
Array Heatmap value (peptide array signal) [3]: 0.3802
Array Heatmap value (peptide array signal) [4]: 0.6069
Array Heatmap value (peptide array signal) [5]: 0.7848
Array Heatmap value (peptide array signal) [6]: 0.5628
Array Heatmap value (peptide array signal) [7]: 0.7386
Array Heatmap value (peptide array signal) [8]: 0.7091
Array Heatmap value (peptide array signal) [9]: 0.5586
Array Heatmap value (peptide array signal) [10]: 0.5942
Array Heatmap value (peptide array signal) [11]: 0.5105
Array Heatmap value (peptide array signal) [12]: 0.4699
Array Heatmap value (peptide array signal) [13]: 0.3649
Array Heatmap value (peptide array signal) [14]: 0.487
Array Heatmap value (peptide array signal) [15]: 0.4528
Array Heatmap value (peptide array signal) [16]: 0.4685
Array Heatmap value (peptide array signal) [17]: 0.6453
Array Heatmap value (peptide array signal) [18]: 0.4621
Array Heatmap value (peptide array signal) [19]: 0.3432
Array Heatmap value (peptide array signal) [20]: 0.5646
Array Heatmap value (peptide array signal) [21]: 0.3785
Array Heatmap value (peptide array signal) [22]: 0.6186
Array Heatmap value (peptide array signal) [23]: 0.485
Array Heatmap value (peptide array signal) [24]: 0.5402
Array Heatmap value (peptide array signal) [25]: 0.5897
Array Heatmap value (peptide array signal) [26]: 0.3765
Array Heatmap value (peptide array signal) [27]: 0.4907
Array Heatmap value (peptide array signal) [28]: 0.2519
Array Heatmap value (peptide array signal) [29]: 0.3822
Array Heatmap value (peptide array signal) [30]: 0.2628
Array Heatmap value (peptide array signal) [31]: 0.6293
